The record followed here is ChEMBL document CHEMBL3507680, “University of Dundee, Gates Library screen for HepG2 cell viability”.

The nature of the data set: Human HepG2 cell viability assay in 384 well format. On the set-up: dose 125 nL, time 70.5 hour; concentration not given beside the values. It is filed as toxicity, cell-based. Particulars: HepG2 cells, read-out: Inhibition.
`CC(C)NC(=O)C1CCc2nnc(CNC(=O)c3ccc(Cl)cc3Cl)n21` (centres undefined): the cytotoxicity at 70.5 h was determined as 1.45%.
On to `CN(C)C(=O)C1CCc2nnc(CNC(=O)c3ccc(Cl)cc3Cl)n21` (centres undefined), for which the cytotoxicity at 70.5 h was 2.11%.
Consider `CC(C)(C)CN1CCCC12Cc1ccccc1CNC2=O` (centres undefined), for which the cytotoxicity at 70.5 h is -7.71%.
Regarding `CC(C)CCN1CCCC12Cc1ccccc1CNC2=O` (centres undefined), the cytotoxicity at 70.5 h was -7.7%.
`CS(=O)(=O)N1Cc2ccccc2CC2(CCN(Cc3ccncc3)C2)C1` (centres undefined): the cytotoxicity at 70.5 h was -9.23%.
In the case of `CC(=O)N1Cc2ccccc2CC2(CCCCN2C)C1` (centres undefined), the cytotoxicity at 70.5 h came to 21.1%.
As to `CN1CCCCC12Cc1ccccc1CN(C(=O)C1CCCC1)C2` (centres undefined), the cytotoxicity at 70.5 h is -6.1%.
As for `CS(=O)(=O)N1CC2(CCN(C3CCCCC3)C2)Cc2ccccc21` (centres undefined), the cytotoxicity at 70.5 h was 0.278%.
Then `CS(=O)(=O)N1CC2(CCN(CC3CCCCC3)CC2)Cc2ccccc21`, with 29.9%; and `CS(=O)(=O)N1CC2(CCN(CC3CCCCC3)C2)Cc2ccccc21` (centres undefined), with -3.19%; and `O=C1Nc2ccccc2CN(CC2CCCC2)C12CCNC2` (centres undefined), with -2.12%.
The value for `O=C(NC1CC1)c1cc(C2CC2)nc2onc(C3CCNCC3)c12` was -4.47%; that for `COCCNC(=O)c1cc(C2CC2)nc2onc(C3CCNC3)c12` (centres undefined) was -7.31%.
For `Cc1cc(C(=O)NCC(F)(F)F)c2c(C3CCNCC3)noc2n1`, the cytotoxicity at 70.5 h amounted to 25.3%.
Then `O=C(c1ccc(Cl)cc1)N1CCC(N2CCOC2=O)CC1`, with -7.62%; and `O=C(c1ccc(Cl)cc1)N1CCC(N2CCNC2=O)CC1`, with -3.41%.
In the case of `O=C(c1cscn1)N1CCC2(COc3ncccc3S(=O)(=O)N2)C1` (centres undefined), the cytotoxicity at 70.5 h is -3.8%.
The value for `CC(C)(C)C(=O)N1CCC2(CNS(=O)(=O)c3cnccc3O2)C1` (centres undefined) was 41.2%; that for `CC(C)NC(=O)N1CCCCC1c1nnc2n1CCNC2` (centres undefined) was 20.4%; that for `O=S1(=O)NCC2(CCCN(Cc3cccnc3)C2)Oc2ncccc21` (centres undefined) was 26.5%.
The value for `CN1CCC2(CC1)Cc1ccccc1CN(C(=O)CN)C2` was 24.5%.
As for `O=C1Nc2ccccc2CC12CCCN2Cc1ccc(C(F)(F)F)cc1` (centres undefined), the cytotoxicity at 70.5 h was 6.34%.
The value for `CCN(CC(=O)NC)C(=O)c1csc(Cc2ccccc2)n1` was -2.3%; that for `O=C(NC1CCN(Cc2ccc(F)cc2)CC1)c1ccc2c(c1)CCC2` was -6.88%.
Consider `Cc1cc(C(=O)N2CCNC(=O)CC2)c(C)n1CC(F)(F)F`, for which the cytotoxicity at 70.5 h stood at 23.5%.
For `CC(C)(C)c1noc(CCCC(=O)N2CCNC(=O)CC2)n1`, the cytotoxicity at 70.5 h is -6.5%.
Regarding `Cc1noc(CCCC(=O)N2CCNC(=O)C2)n1`, the cytotoxicity at 70.5 h was -9.21%.
Then `CC(C)C1C(=O)NCCN1C(=O)CCCc1nc(C(C)(C)C)no1` (centres undefined), with -3.75%; and `CCOCCC(=O)NC(c1noc(C)n1)c1ccccc1F` (centres undefined), with -7.31%; and `Cc1nc(C(NS(=O)(=O)N(C)C)c2ccccc2F)no1` (centres undefined), with -2.92%.
The value for `COC(=O)C1CN(Cc2ccn(-c3ccc(F)cc3)n2)C[C@@H](C)O1` (some centres undefined) was 21.2%.
As for `NC(=O)NC1CCN(Cc2ccc(Br)c(F)c2)CC1`, the cytotoxicity at 70.5 h was -5.43%.
Turning to `CN(Cc1cc(Br)cn1C)C(=O)c1cccnc1`, the cytotoxicity at 70.5 h was -8.21%.
Then `N#Cc1ccc(SCCC(=O)O)cc1`, with -7.41%.
On to `CSCCC(=O)N1CCN(CC(C)(C)O)CC1`, for which the cytotoxicity at 70.5 h is -13.7%.
Regarding `CCCNC(=O)c1cnc2n1CCCC2`, the cytotoxicity at 70.5 h is -9.22%.
In the case of `COC(=O)CC1CN(Cc2ccn(-c3ccc(F)cc3)n2)CCO1` (centres undefined), the cytotoxicity at 70.5 h is -8.65%.
Consider `CCc1ccc(C(=O)NC2CCN(c3ccn(C)n3)C2)o1` (centres undefined), for which the cytotoxicity at 70.5 h was -2.13%.
Turning to `CCC(O)CN1CCN(C(=O)CCSC)CC1` (centres undefined), the cytotoxicity at 70.5 h came to 0.756%.
`CSCC(=O)N1CCN(CC(O)C(C)(C)C)CC1` (centres undefined): the cytotoxicity at 70.5 h is -10.6%.
In the case of `CCC1CN(CCCO)c2ccccc2O1` (centres undefined), the cytotoxicity at 70.5 h was found to be 0.738%.
For `COC1CCCN(C(=O)NCc2ccc(C(=O)N(C)C(C)C)cc2)C1` (centres undefined), the cytotoxicity at 70.5 h came to 25.2%.
In the case of `CN(CCc1cccs1)C(=O)Nc1ccc2c(c1)C(=O)N(C)CC2`, the cytotoxicity at 70.5 h was -7.01%.
Then `COCCN(Cc1ccccn1)C(=O)Nc1cccnc1N1CCCC1`, with -12.3%; and `O=C(COc1ccc(Br)cc1F)Nc1cn[nH]c1`, with 15.8%.
As for `CCCNC(=O)C(C)NC(=O)Nc1ccccc1SC(F)F` (centres undefined), the cytotoxicity at 70.5 h is -13%.
For `CCOC1CCN(C(=O)NCc2ccc(CN3CCOCC3)cc2)CC1`, the cytotoxicity at 70.5 h was -9.89%.
In the case of `CN(CCc1ccccn1)C(=O)Nc1cccnc1N1CCCC1`, the cytotoxicity at 70.5 h amounted to 11.3%.
With `Cc1cc(N(C)C)nc(N2CCCC2c2cccnc2)n1` (centres undefined), the cytotoxicity at 70.5 h is -1.47%.
Turning to `Cc1nn(C)c(C)c1C(=O)N1CCN(C(=O)CC2CCCCC2)CC1`, the cytotoxicity at 70.5 h was 11.5%.
Take `Cc1nsc(N2CCN(Cc3cccc(F)c3)CC2)n1`: the cytotoxicity at 70.5 h was found to be 0.252%.
With `Cc1cccc(CN(Cc2ccccn2)Cc2ncc(C(C)(C)C)o2)c1`, the cytotoxicity at 70.5 h is -11.5%.
`O=S(=O)(N1CCC(n2cccc2)CC1)N1CCCC1c1ccco1` (centres undefined): the cytotoxicity at 70.5 h is -10.3%.
Take `O=C(NCC(O)c1ccc(Cl)s1)c1ccoc1` (centres undefined): the cytotoxicity at 70.5 h was -8.52%.
For the compound `COCCN(Cc1ccc(C)o1)C(=O)Nc1nnc2ccccn12`, the cytotoxicity at 70.5 h is -16.7%.
The value for `O=c1[nH]c(C2CCOC2)nc2ccc(Cl)cc12` (centres undefined) was 7.32%; that for `CN1CCc2ccc(NCc3cccs3)cc2C1=O` was -15.5%; that for `COCc1nnc(-c2cccc(C(=O)N(C(C)C)C3CCC3)c2)o1` was -12.7%.
With `Cc1cc(CNc2cc(-c3ccoc3C)nn2CCO)c(C)o1`, the cytotoxicity at 70.5 h is -12.2%.
In the case of `COCCCN(Cc1ccncc1)C(=O)C1COc2ccccc2C1` (centres undefined), the cytotoxicity at 70.5 h is -14.9%.
`COc1cc(NCCNC(=O)c2ccc3[nH]ccc3c2)cc(OC)c1`: the cytotoxicity at 70.5 h is -13.8%.
As to `COc1cc(NCCNC(=O)c2cscc2C)cc(OC)c1`, the cytotoxicity at 70.5 h is -2.4%.
As for `COCc1nnc(-c2cccc(C(=O)OC(C)C)c2)o1`, the cytotoxicity at 70.5 h was -8.2%.
With `CSC1(CNC(=O)N(C)Cc2sccc2C)CCOCC1`, the cytotoxicity at 70.5 h came out at 29.3%.
`Cc1nc(CN2CCCC2Cn2cccn2)nc2ccccc12` (centres undefined): the cytotoxicity at 70.5 h was found to be 7.51%.
Take `O=C(c1cc(-c2ccccc2)nc2onc(C3CC3)c12)N1CC[C@H](O)C1`: the cytotoxicity at 70.5 h is -11.3%.
Regarding `CCOc1ccc(CN(C)C(=O)c2nc(N3CCCC3)ncc2Cl)cc1`, the cytotoxicity at 70.5 h is -8.28%.
Take `Cc1cc(CN(C)C(=O)CNS(=O)(=O)c2cccs2)no1`: the cytotoxicity at 70.5 h was -6.5%.
Take `N#Cc1cccnc1NCc1cccnc1N1CCCCC1`: the cytotoxicity at 70.5 h worked out at 4.49%.
For the compound `CCc1nc(NC(=O)Cc2csc(-c3nnc[nH]3)n2)sc1C`, the cytotoxicity at 70.5 h was -11.9%.
For the compound `CC(C)c1nccn1CC1CCCN1Cc1nc2ccccc2n1C` (centres undefined), the cytotoxicity at 70.5 h was -10.4%.
The value for `CCc1ccc(CCC(=O)N2CCC(=O)Nc3cccnc32)cc1` was 23.9%; that for `CC(=O)NC1CCCN(c2nc3ccccc3cc2CO)C1` (centres undefined) was 2.9%; that for `Oc1ccc(Br)c(CNc2cccc(-c3nnc[nH]3)c2)c1` was 1.61%.
